From patent US20230183219A1, “CONDENSED SUBSTITUTED HYDROPYRROLES AS ANTAGONISTS OF THE MUSCARINIC ACETYLCHOLINE RECEPTOR M4” (Vanderbilt University, priority 2020, published 2023)

Biological target: T1, Human M4 (Homo sapiens, UniProt P08173)
T1 construct: Human or rat M4 cDNA, along with the chimeric G protein Gqi5, were transfected into Chinese hamster ovary (CHO-K1) cells; expressed in transfected cells; host or cells: CHO-K1 (Chinese hamster ovary, ATCC), stably co-expressing Gqi5
T1 sequence (P08173 1-479): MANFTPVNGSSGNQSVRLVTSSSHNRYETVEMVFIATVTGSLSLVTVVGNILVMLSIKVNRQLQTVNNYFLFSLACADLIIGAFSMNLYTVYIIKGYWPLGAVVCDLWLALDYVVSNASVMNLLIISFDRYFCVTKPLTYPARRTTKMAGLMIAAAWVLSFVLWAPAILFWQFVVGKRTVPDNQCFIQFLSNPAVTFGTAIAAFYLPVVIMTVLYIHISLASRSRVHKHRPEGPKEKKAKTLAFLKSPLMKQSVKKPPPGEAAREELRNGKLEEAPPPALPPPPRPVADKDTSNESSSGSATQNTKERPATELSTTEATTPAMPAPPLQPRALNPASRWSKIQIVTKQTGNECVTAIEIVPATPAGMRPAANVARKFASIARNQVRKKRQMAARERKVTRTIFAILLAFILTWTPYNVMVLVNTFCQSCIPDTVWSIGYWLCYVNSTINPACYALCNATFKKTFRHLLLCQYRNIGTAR
Assay: mAChR M4 cell-based functional assay (calcium flux, decrease of EC80 acetylcholine response)
Conditions: for remaining activity at 30 µM: read-out: Human M4 Emin; for IC50: M4/Gqi5/CHO-K1 cells, decrease of response to EC80 acetylcholine
In short: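 IC50 reflects inhibition of an EC80 acetylcholine calcium response, fitted by four-parameter logistic equation. Fluo-4-loaded M4/Gqi5 CHO-K1 cells received compound (10-point, 1:3 series) 2 s into the FDSS read, then EC20 acetylcholine at 143 s and EC80 at 268 s.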

Row | remaining activity at 30 µM (% ACh maximum at 30 μM) | IC50 | SMILES | Human M4 Emin (% ACh maximum at 30 μM)
1 | 3% | 94.2 nM | [2H]C([2H])(C1CCOCC1)N1C[C@H]2C[C@H](Nc3nnc(-c4ccc(C)cc4C)cc3C(F)(F)F)C[C@H]2C1 [Example 126, (3aR,5s,6aS)-N-(6-(2,4-dimethyl-phenyl)-4-(trifluoro-methyl)pyridazin-3-yl)-2-((tetrahydro-2H-pyran-4-yl)methyl-d2)octahydro-cyclopenta[c]pyrrol-5-amine] | –
2 | 4% | 401 nM | N#Cc1c(F)ccc(-c2cc(C(F)(F)F)c(N[C@H]3C[C@@H]4CN(CC5CCOCC5)C[C@@H]4C3)nn2)c1F [Example 55, 2,6-difluoro-3-(6-(((3aR,5s,6aS)-2-((tetrahydro-2H-pyran-4-yl)methyl)octahydro-cyclopenta[c]pyrrol-5-yl)amino)-5-(trifluoro-methyl)pyridazin-3-yl)benzonitrile] | –
3 | 3% | 592 nM | Cc1ccc(F)cc1-c1cc(C(F)(F)F)c(O[C@H]2C[C@@H]3CN(CC4CCOCC4)C[C@@H]3C2)nn1 [Example 132, (3aR,5s,6aS)-5-((6-(5-fluoro-2-methylphenyl)-4-(trifluoromethyl)pyridazin-3-yl)oxy)-2-((tetrahydro-2H-pyran-4-yl)methyl)octahydro-cyclopenta[c]pyrrole] | –
4 | 3% | 183 nM | Cc1ccc(C)c(-c2cc(C(F)(F)F)c(N[C@H]3C[C@@H]4CN(C[C@@H]5COCCO5)C[C@@H]4C3)nn2)c1 [Example 71, (3aR,5s,6aS)-2-(((R)-1,4-dioxan-2-yl)methyl)-N-(6-(2,5-dimethylphenyl)-4-(trifluoromethyl)pyridazin-3-yl)octahydro-cyclopenta[c]pyrrol-5-amine] | –
5 | 4% | 269 nM | Fc1ccc(Cl)c(-c2cc(C(F)(F)F)c(N[C@H]3C[C@@H]4CN(Cc5ccccn5)C[C@@H]4C3)nn2)c1 [Example 100, (3aR,5s,6aS)-N-(6-(2-chloro-5-fluorophenyl)-4-(trifluoromethyl)pyridazin-3-yl)-2-(pyridin-2-ylmethyl)octahydro-cyclopenta[c]pyrrol-5-amine] | –
6 | 3% | 142 nM | Fc1ccc(F)c(-c2cc(C(F)(F)F)c(N[C@H]3C[C@@H]4CN(C[C@H]5COCCO5)C[C@@H]4C3)nn2)c1 [Example 70, (3aR,5s,6aS)-2-(((S)-1,4-dioxan-2-yl)methyl)-N-(6-(2,5-difluorophenyl)-4-(trifluoromethyl)pyridazin-3-yl)octahydro-cyclopenta[c]pyrrol-5-amine] | –
7 | 4% | 70.9 nM | [2H]C([2H])([2H])OC([2H])([2H])c1ccc(F)cc1-c1cc(C(F)(F)F)c(N[C@H]2C[C@@H]3CN(CC4CCOCC4)C[C@@H]3C2)nn1 [Example 47, (3aR,5s,6aS)-N-(6-(5-fluoro-2-((methoxy-d3)methyl-d2)phenyl)-4-(trifluoromethyl)pyridazin-3-yl)-2-((tetrahydro-2H-pyran-4-yl)methyl)octahydro-cyclopenta[c]pyrrol-5-amine] | –
8 | 5% | 52.3 nM | Cc1ccc(F)cc1-c1cc(C(F)(F)F)c(N[C@H]2C[C@@H]3CN(CC4COCC4C)C[C@@H]3C2)nn1 (stereo partly drawn) [Example 29, (3aR,5s,6aS)-N-(6-(5-fluoro-2-methylphenyl)-4-(trifluoromethyl)pyridazin-3-yl)-2-((4-methyltetrahydro-furan-3-yl)methyl)octahydro-cyclopenta[c]pyrrol-5-amine] | –
9 | 4% | 9.5 nM | Cc1ccc(F)cc1-c1cc(C(F)(F)F)c(N[C@H]2C[C@@H]3CN(CC4CCCOC4)C[C@@H]3C2)nn1 (stereo partly drawn) [Example 28, (3aR,5s,6aS)-N-(6-(5-fluoro-2-methylphenyl)-4-(trifluoromethyl)pyridazin-3-yl)-2-((tetrahydro-2H-pyran-3-yl)methyl)octahydro-cyclopenta[c]pyrrol-5-amine] | –
10 | 3% | 42.8 nM | CCc1ccccc1-c1cc(C(F)(F)F)c(N[C@H]2C[C@@H]3CN(CC4CCOCC4)C[C@@H]3C2)nn1 [Example 85, (3aR,5s,6aS)-N-(6-(2-ethylphenyl)-4-(trifluoro-methyl)pyridazin-3-yl)-2-((tetrahydro-2H-pyran-4-yl)methyl)octahydro-cyclopenta[c]pyrrol-5-amine] | –
11 | 3% | 30.5 nM | Cc1ccc(F)cc1-c1cc(C#N)c(N[C@H]2C[C@@H]3CN(C[C@@H]4COCCO4)C[C@@H]3C2)nn1 [Example 150, 3-(((3aR,5s,6aS)-2-(((R)-1,4-dioxan-2-yl)methyl)octahydro-cyclopenta[c]pyrrol-5-yl)amino)-6-(5-fluoro-2-methylphenyl)pyridazine-4-carbonitrile] | –
12 | 6% | 188 nM | Cn1cc2cc(-c3cc(C(F)(F)F)c(N[C@H]4C[C@@H]5CN(C[C@H]6CCOC6)C[C@@H]5C4)nn3)ccc2n1 [Example 33, (3aR,5s,6aS)-N-(6-(2-methyl-2H-indazol-5-yl)-4-(trifluoro-methyl)pyridazin-3-yl)-2-(((R)-tetrahydrofuran-3-yl)methyl)octahydro-cyclopenta[c]pyrrol-5-amine] | –
13 | 2% | 2.3 nM | [2H]C([2H])(C1CCOCC1)N1C[C@H]2C[C@H](Nc3cc(C(F)(F)F)c(-c4cc(F)ccc4Cl)nn3)C[C@H]2C1 [Example 129, (3aR,5s,6aS)-N-(6-(2-chloro-5-fluorophenyl)-5-(trifluoro-methyl)pyridazin-3-yl)-2-((tetrahydro-2H-pyran-4-yl)methyl-d2)octahydrocyclopenta[c]pyrrol-5-amine] | –
14 | 3% | 69 nM | FC(F)(F)c1cc(-c2ccccc2)nnc1N[C@H]1C[C@@H]2CN(CC3CCOCC3)C[C@@H]2C1 [Example 65, (3aR,5s,6aS)-N-(6-phenyl-4-(trifluoromethyl)pyridazin-3-yl)-2-((tetrahydro-2H-pyran-4-yl)methyl)octahydro-cyclopenta[c]pyrrol-5-amine] | –
15 | 3% | 258 nM | COc1ccc(-c2cc(C(F)(F)F)c(N[C@H]3C[C@@H]4CN(CC5CCOCC5)C[C@@H]4C3)nn2)c(F)c1F [Example 62, (3aR,5s,6aS)-N-(6-(2,3-difluoro-4-methoxyphenyl)-4-(trifluoromethyl)pyridazin-3-yl)-2-((tetrahydro-2H-pyran-4-yl)methyl)octahydro-cyclopenta[c]pyrrol-5-amine] | –
16 | 3% | 93.8 nM | Cn1cnc2ccc(-c3cc(C(F)(F)F)c(N[C@H]4C[C@@H]5CN(CC6CCOCC6)C[C@@H]5C4)nn3)cc21 [Example 76, (3aR,5s,6aS)-N-(6-(1-methyl-1H-benzo[d]imidazol-6-yl)-4-(trifluoromethyl)pyridazin-3-yl)-2-((tetrahydro-2H-pyran-4-yl)methyl)octahydro-cyclopenta[c]pyrrol-5-amine] | –
17 | 3% | 8.9 nM | FC(F)(F)c1cc(-c2ccc3ncsc3c2)nnc1N[C@H]1C[C@@H]2CN(CC3CCOCC3)C[C@@H]2C1 [Example 112, (3aR,5s,6aS)-N-(6-(benzo[d]thiazol-6-yl)-4-(trifluoromethyl)pyridazin-3-yl)-2-((tetrahydro-2H-pyran-4-yl)methyl)octahydro-cyclopenta[c]pyrrol-5-amine] | –
18 | 3% | 266 nM | [2H]C([2H])([C@H]1CCOC1)N1C[C@H]2C[C@H](Nc3nnc(-c4cc(C)ccc4C)cc3C(F)(F)F)C[C@H]2C1 [Example 116, (3aR,5s,6aS)-N-(6-(2,5-dimethylphenyl)-4-(trifluoro-methyl)pyridazin-3-yl)-2-(((R)-tetrahydrofuran-3-yl)methyl-d2)octahydro-cyclopenta[c]pyrrol-5-amine] | –
19 | 3% | 11.3 nM | [2H]C([2H])(C1CCOCC1)N1C[C@H]2C[C@H](Nc3nnc(-c4cc(F)ccc4C)cc3C(F)(F)F)C[C@H]2C1 [Example 17, (3aR,5s,6aS)-N-(6-(5-fluoro-2-methylphenyl)-4-(trifluoro-methyl)pyridazin-3-yl)-2-((tetrahydro-2H-pyran-4-yl)methyl-d2)octahydro-cyclopenta[c]pyrrol-5-amine] | –
20 | 3% | 233 nM | COc1ccc(-c2cc(C(F)(F)F)c(N[C@H]3C[C@@H]4CN(CC5CCOCC5)C[C@@H]4C3)nn2)c(F)c1 [Example 61, (3aR,5s,6aS)-N-(6-(2-fluoro-4-methoxyphenyl)-4-(trifluoromethyl)pyridazin-3-yl)-2-((tetrahydro-2H-pyran-4-yl)methyl)octahydro-cyclopenta[c]pyrrol-5-amine] | –

Row | SMILES | remaining activity at 30 µM (% ACh maximum at 30 μM) | IC50 | Human M4 Emin (% ACh maximum at 30 μM)
21 | Cn1cc2cc(-c3nnc(N[C@H]4C[C@@H]5CN(CC6CCOCC6)C[C@@H]5C4)cc3C(F)(F)F)ccc2n1 [Example 1, (3aR,5s,6aS)—N-(6-(2-Methyl-2H-indazol-5-yl)-5-(trifluoromethyl)pyridazin-3-yl)-2-((tetrahydro-2H-pyran-4-yl)methyl)octahydrocyclopenta[c]pyrrol-5-amine] | – | 5.63 nM | 2%
